Test results taken from patent US9474740B2, “Ectoparasite control agent” (Nippon Soda Co., Ltd., priority 2013, dated 2016).

Columns and labels:
[1] = system: American dog mites (Dermacentor variabilis) in nymph stage; experiment: Acaricidal test of rodent (RAT) in vivo; conditions: Sprague-Dawley rat, topical 0.05 ml in acetone, effective component concentration of 1% or less (10 mg/ml), 48 hours after the treatment, read-out: efficacy (reduction % in the number of surviving mites)
Description: Evaluation of the test compounds can be performed by a method obtained by modifying the analysis method described in “J. Med. Entomol. 43 (3) 526-532 (2006)”. In the analysis method, other mite species (in references, described as a mite of Amblyomma americanum) can be also used, and, for example, other mite species such as a mite of Dermacentor variabilis can be also used. A mite-holding unit (which was configured of small size nipples, a crew cap with a vent, and a reinforcing rubber washer) was attached to the back of an adult Sprague-Dawley rat. After attaching the holding unit, 0.05 ml of a test compound dissolved in acetone was applied topically on the skin surface inside the holding unit. After leaving to stand for a sufficient period of time to evaporate the acetone, about 10 American dog mites (Dermacentor variabilis) in nymph stage, to which food was not given, were put into each holding unit. Three to five rats per treatment group were used. 48 hours after the treatment, the holding unit was removed, and the surviving mites and dead mites were counted. In the evaluation of efficacy, geometric mean calculation was used. First, the total number of surviving mites was converted by the natural logarithm transformation by adding 1 (Ln total number+1). That is, by adding 1 to each total number, the total number which was zero was adjusted. The geometric mean (GM) of the total number of mites in a treatment group was obtained by inverse-transforming the mean transformation value of the total number of treatment groups and subtracting 1. The non-treated control group was used for comparison with the groups in which the test compound was given for calculation of efficacy % (reduction % in the number of surviving mites). […] Efficacy [%]=[(survival mites GM number of control−survival mites GM number of treatment groups)/(survival mites GM number of control)×100

Rhipicephalus sanguineus = experiment: Parasite extermination test of dog in vivo, R. sanguineus
Protocol: Each type of the test compounds was applied to four dogs. One day before treatment (−1 day) of the test compound, about 50 adults of Rhipicephalus sanguineus to which food was not given, per dog, were parasitized. It was estimated that 50% of the 50 ticks were male and 50% of the 50 ticks were female. Separately, the tested compound was dissolved in a mixed solvent consisting of 80% by volume of benzyl alcohol and 20% by volume of isopropyl myristate such that the concentration became 50 mg/ml, whereby a test solution was prepared. On zeroth day, several different spots of the interscapular region were treated with the test solution by “topical spot-on” such that the test compound was treated per 20 mg/kg per body weight of a dog. For comparison, a negative control was also prepared. In order to evaluate the treatment against the parasitized ticks, survival of the ticks were observed on the 2nd day (48 hours after the treatment). To evaluate the durability, on the 5th, 12th, 19th, and 28th day, 50 ticks to which food was not given, per dog, were parasitized again. On the 7th, 14th, 21 st, 30th and 35th day, 48 hours after each was parasitized, survival of the ticks and mites were observed, and the ticks and mites were removed from the dogs. The ticks were classified according to whether or not the ticks were attached, and the survival state was determined. In the evaluation of efficacy, the same geometric mean calculation as that in Test Example 2 was used. […] In addition, for Test Compound 1 to 32, the test compounds were treated per 5 mg/kg per body weight of an individual with respect to a dog.

[2] = system: fleas (Ctenocephalides felis); experiment: Parasite extermination test of dog in vivo, C. felis; conditions: topical spot-on 20 mg/kg
Protocol: Each type of the test compounds was applied to four dogs. One day before treatment (−1 day) of the test compound, about 50 adults of Rhipicephalus sanguineus to which food was not given, per dog, were parasitized. It was estimated that 50% of the 50 ticks were male and 50% of the 50 ticks were female.
Separately, the tested compound was dissolved in a mixed solvent consisting of 80% by volume of benzyl alcohol and 20% by volume of isopropyl myristate such that the concentration became 50 mg/ml, whereby a test solution was prepared.
On zeroth day, several different spots of the interscapular region were treated with the test solution by “topical spot-on” such that the test compound was treated per 20 mg/kg per body weight of a dog. For comparison, a negative control was also prepared.
In addition, on the 12th and 28th day, 50 adult fleas (Ctenocephalides felis) to which food was not given were parasitized together.
On the 7th, 14th, 21 st, 30th and 35th day, 48 hours after each was parasitized, survival of the ticks and mites were observed, and the ticks and mites were removed from the dogs. The ticks were classified according to whether or not the ticks were attached, and the survival state was determined.
In the evaluation of efficacy, the same geometric mean calculation as that in Test Example 2 was used.

[3] = system: American dog mites (Dermacentor variabilis); experiment: Parasite extermination test of dog in vivo, D. variabilis; conditions: topical spot-on 20 mg/kg, 35th day
Protocol: Each type of the test compounds was applied to four dogs. One day before treatment (−1 day) of the test compound, about 50 adults of Rhipicephalus sanguineus to which food was not given, per dog, were parasitized. It was estimated that 50% of the 50 ticks were male and 50% of the 50 ticks were female. Separately, the tested compound was dissolved in a mixed solvent consisting of 80% by volume of benzyl alcohol and 20% by volume of isopropyl myristate such that the concentration became 50 mg/ml, whereby a test solution was prepared. On zeroth day, several different spots of the interscapular region were treated with the test solution by “topical spot-on” such that the test compound was treated per 20 mg/kg per body weight of a dog. For comparison, a negative control was also prepared. Furthermore, on the 33rd day, 50 adult American dog mites (Dermacentor variabilis) to which food was not given were parasitized. On the 7th, 14th, 21 st, 30th and 35th day, 48 hours after each was parasitized, survival of the ticks and mites were observed, and the ticks and mites were removed from the dogs. The ticks were classified according to whether or not the ticks were attached, and the survival state was determined. In the evaluation of efficacy, the same geometric mean calculation as that in Test Example 2 was used. As the test compounds, 1-3, 1-5, 1-10, 1-28, 1-29, and 1-71 were used. Here, the test using American dog mites was performed on 1-28 and 1-71.

[4] = topical spot-on 20 mg/kg, 2nd day
[5] = topical spot-on 20 mg/kg, 7th day
[6] = topical spot-on 20 mg/kg, 14th day
[7] = topical spot-on 20 mg/kg, 21st day
[8] = topical spot-on 20 mg/kg, 30th day
[9] = 5 mg/kg per body weight, 2nd day
[10] = 5 mg/kg per body weight, 5th day

Row | Compound | pest or weed control at up to 10000 µg/mL [1] | average number of surviving parasites (Rhipicephalus sanguineus; [4]) | efficacy (%) (Rhipicephalus sanguineus; [4]) | average number of surviving parasites (Rhipicephalus sanguineus; [5]) | efficacy (%) (Rhipicephalus sanguineus; [5]) | average number of surviving parasites (Rhipicephalus sanguineus; [6]) | efficacy (%) (Rhipicephalus sanguineus; [6]) | average number of surviving parasites (Rhipicephalus sanguineus; [7]) | efficacy (%) (Rhipicephalus sanguineus; [7]) | average number of surviving parasites (Rhipicephalus sanguineus; [8]) | efficacy (%) (Rhipicephalus sanguineus; [8]) | average number of surviving parasites ([2]; 14th day) | efficacy (%) ([2]; 14th day) | average number of surviving parasites ([2]; 30th day) | efficacy (%) ([2]; 30th day) | further results
1 | C=C1SC(=N\c2ccc(C)cc2)/C(=C/Sc2ccccc2)CC1(C)C [Compound 1-3] | ≥ 50% | 0.5 | 98.6% | 0 | 100% | 0 | 100% | 0 | 100% | 6.0 | 92.3% | 0 | 100% | 0 | 100% | 
2 | C=C1SC(=N\c2ccc(C)cc2)/C(=C/Sc2ccccc2)CC12CCCCC2 [Compound 1-5] | ≥ 50% | 0 | 100% | 0 | 100% | 0 | 100% | 1.8 | 95.4% | 6.5 | 86.8% | 0 | 100% | 8.8 | 98.2% | 
3 | C=C1SC(=N\c2ccc(C)cc2)/C(=C/Sc2cccs2)CC1(C)C [Compound 1-10] | ≥ 50% | 0.5 | 98.9% | 0 | 100% | 0 | 100% | 0.5 | 99.5% | 4.3 | 95.4% | 0 | 100% | 0 | 100% | 
4 | C=C1SC(=N\c2ccc(C)cc2)/C(=C/Sc2ccccc2)C(C)C1(C)C (stereo not shown) [Compound 1-28] | ≥ 50% | 0.25 | 99.3% | 0 | 100% | 0 | 100% | 0 | 100% | 1.8 | 97.8% | 0 | 100% | 0 | 100% | average number of surviving parasites [3]: 7.0; efficacy (%) [3]: 88.3%
5 | C=C1SC(=N\c2ccc(C)cc2)/C(=C/Sc2cccs2)C(C)C1(C)C (stereo not shown) [Compound 1-29] | ≥ 50% | 1.3 | 97.3% | 0 | 100% | 0 | 100% | 0 | 100% | 0 | 100% | 0 | 100% | 0 | 100% | 
6 | Cc1ccc(/N=C2\SC(C)(C)CC\C2=C/Sc2cccc(C)c2)cc1 [Compound 1-31] | ≥ 50% |  |  |  |  |  |  |  |  |  |  |  |  |  |  | 
7 | Cc1ccc(/N=C2\SC(C)(C)CC\C2=C/Sc2ccccc2F)cc1 [Compound 1-32] | ≥ 50% |  |  |  |  |  |  |  |  |  |  |  |  |  |  | average number of surviving parasites (Rhipicephalus sanguineus; [9]): 0; efficacy (%) (Rhipicephalus sanguineus; [9]): (76.6%); average number of surviving parasites (Rhipicephalus sanguineus; [10]): 0; efficacy (%) (Rhipicephalus sanguineus; [10]): (100%)
8 | CC(C)=C1CC(C)C(=C\SCc2ccc(Cl)cc2)/C(=N/c2ccc(C)cc2)S1 (stereo not shown) [Compound 1-71] | ≥ 50% | 5.0 | 90% | 0 | 100% | 0 | 100% | 1.8 | 96.9% | 0 | 86.8% | 0 | 100% | 0 | 100% | average number of surviving parasites [3]: 9.8; efficacy (%) [3]: 80.3%
